Measurements published in ChEMBL document CHEMBL4732253, “Free energy perturbation in the design of EED ligands as inhibitors of polycomb repressive complex 2 (PRC2) methyltransferase” (Bioorg Med Chem Lett, 2021).
Values after ≈ are worked out from the molar mass of the structure shown.

What was measured:
Polycomb protein EED = Polycomb protein EED (Homo sapiens, UniProt O75530); experiment: Binding affinity to EED (unknown origin) assessed as dissociation constant by SPR analysis
[1] = Intrinsic clearance in human liver microsomes; assay type: ADME, Microsome; settings: read-out: CLH
[2] = Solubility of compound in PBS at pH 7.4 measured for 24 hrs; assay type: physicochemical
[3] = Lipophilicity, log D of the compound in Octanol/phosphate buffer at pH 7.4 by shake-flask method; assay type: physicochemical
[4] = Inhibition of PRC2 in human G-401 cells assessed as reduction in methylation of H3K27 trimethylation by HTRF assay; assay type: cell-based
[5] = Intrinsic clearance in rat hepatocytes assessed per million cells; assay type: ADME, cell-based, Hepatocyte; settings: read-out: CLH

Chain of Polycomb protein EED (O75530 whole entry): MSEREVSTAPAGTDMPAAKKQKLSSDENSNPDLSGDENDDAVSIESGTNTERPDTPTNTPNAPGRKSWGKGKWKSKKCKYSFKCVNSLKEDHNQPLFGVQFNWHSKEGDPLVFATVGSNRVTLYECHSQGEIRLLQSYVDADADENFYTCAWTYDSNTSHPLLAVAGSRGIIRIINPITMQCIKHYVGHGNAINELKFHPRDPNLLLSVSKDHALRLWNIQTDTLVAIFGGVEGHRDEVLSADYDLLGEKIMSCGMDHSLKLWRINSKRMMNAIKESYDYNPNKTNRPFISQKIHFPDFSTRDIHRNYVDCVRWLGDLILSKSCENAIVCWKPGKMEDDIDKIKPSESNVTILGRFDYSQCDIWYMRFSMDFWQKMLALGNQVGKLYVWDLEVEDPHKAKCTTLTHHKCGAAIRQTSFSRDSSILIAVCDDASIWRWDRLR

| SMILES | Kd (Polycomb protein EED) [nM] | microsomal CLint [1] [µL/min/mg] | solubility at 24 h [2] [µM] | logD [3] | IC50 [4] [nM] | hepatocyte CLint [5] [µL/min/1e6 cells] |
| --- | --- | --- | --- | --- | --- | --- |
| Cc1ncccc1-c1cnc(NCc2c(F)cc(C#N)c3c2CCO3)n2cnnc12 | 15000 | 28 | 3 (≈ 1.2 µg/mL) | 2.2 | 102 | 10 |
| COc1cc(F)c(CNc2ncc(-c3cccnc3C)c3nncn23)c2c1OCC2 | 305000 | 20 | 21 (≈ 8.53 µg/mL) | 2.3 | 15500 | 4 |
| Cc1ncccc1-c1cnc(NCc2c(F)ccc3c2CCO3)n2cnnc12 | 400 | 15 | – | 2.5 | 5 | 6 |
| Cc1ncccc1-c1cnc(NCc2c(F)cc(N)c3c2CCO3)n2cnnc12 | 500 | 13 | – | 1.8 | 50 | 7 |

Next, values leading:

| Kd (Polycomb protein EED) [nM] | microsomal CLint [1] [µL/min/mg] | solubility at 24 h [2] [µM] | logD [3] | IC50 [4] [nM] | hepatocyte CLint [5] [µL/min/1e6 cells] | SMILES |
| --- | --- | --- | --- | --- | --- | --- |
| 1200 | 9 | 4 (≈ 1.58 µg/mL) | 2.6 | 11 | 9 | Cc1ncccc1-c1cnc(NCc2c(F)cc(F)c3c2CCO3)n2cnnc12 |
| 2400 | 20 | 0.2 (≈ 0.0822 µg/mL) | 3.2 | 16 | 9 | Cc1ncccc1-c1cnc(NCc2c(F)cc(Cl)c3c2CCO3)n2cnnc12 |
| – | 9 | 5 (≈ 1.96 µg/mL) | 1.8 | 15 | 50 | Cc1ncccc1-c1cnc(NCc2c(F)cc(O)c3c2CCO3)n2cnnc12 |
